The values that follow come from patent US20250090555A1, “METHOD FOR PRODUCING A CBD […] OR SOLID AND USE THEREOF” (Food4Innovations Ventures B.V., priority 2022, published 2025).

Common to all, as to format: physicochemical
A short description of data set [1]: Observation of physical stability: viscosity, phase separation, storage / shelf life. The conditions noted are these: before or after homogenization or on storage. The text has this:
• 1. Before starting the experiment, the most optimal solubilizing phase of the emulsifier (organic or in aqueous phase) may be investigated. This could influence the droplet size and is different for every emulsifier (the movement of the emulsifier from the oil phase into the aqueous phase may be important in the formation of nano emulsions by this method). • 2. Prepare a pre-emulsion comprising the emulsifier in water or oil phase in order to fully dissolve the emulsifier. When mixing the emulsifier into the solubilizing phase, an Ultra turrax is used at 10000 rpm (stand 37) for 3 minutes. If needed, the emulsifier and solubilized phase could be heated prior to mixing. • 3. Mix the pre-emulsion by slowly adding the oil phase to the aqueous phase while mixing with an Ultra turrax at 12000 rpm (stand 40) for 5 min). • 4. Let the pre-emulsion mixture rest for 1 hour. • 5. Homogenize the emulsion with a homogenizer preferably between 300-1200 bar, and between 3 and 5 passes. • 6. Collect the sample and measure the temperature directly. • 7. Allow it to cool completely before measuring the turbidity. • 8. The concentrated emulsion may especially be made into a ready-to-drink clear beverage by diluting it with water. Therefore, dilute a small amount of the obtained concentrated emulsion from step 6 with water to observe the clarity and turbidity of the final product. […]

Data set [2] is described as follows: Observation of foam formation of the emulsion / diluted beverage.
Data set [3] can be described thus: Turbidity of the emulsion before and after dilution with water, by turbidity meter. To be noted: dilution factor not printed at the place. The method, then: A stable, optically clear, beverage is desirably obtained. Homogenization is carried out with a pressure of between 300 bar and 1500 bar, preferably about 800 bar. The homogenization pressure may be applied for between 1 and 5 passes. The ratio of emulsifier to carrier oil in the emulsion may be containing an excess amount of emulsifier in oil, which could be used to make an optically clear beverage. An optimal concentration of between 0 and 3 times more emulsifier in contrast to the oil phase will be tested. Cloudy beverages have a high turbidity, e.g., between 200 and 300 NTU, or even as high as 2,000 NTU. The aim is to develop a beverage with a turbidity<15 NTU. After production of the treatments, the turbidity will therefore be measured by a turbidity meter.
• 1. Before starting the experiment, the most optimal solubilizing phase of the emulsifier (organic or in aqueous phase) may be investigated. This could influence the droplet size and is different for every emulsifier (the movement of the emulsifier from the oil phase into the aqueous phase may be important in the formation of nano emulsions by this method). • 2. Prepare a pre-emulsion comprising the emulsifier in water or oil phase in order to fully dissolve the emulsifier. […] The concentrated emulsion may especially be made into a ready-to-drink clear beverage by diluting it with water. […]

For Sucrose monostearate, the “Viscosity / phase separation / storage behaviour” value in data set [1] is recorded as “became extremely viscous after a couple days of storage”. Further, the Foam formation result in data set [2] is on record as “no foam formation”. The Turbidity in data set [3] is listed as > 15 NTU.
